Source: patent EP0041021A2, “Cyclopropane carboxylic acid derivatives, their preparation, their use against parasites in plants and animals, their compositions and their intermediates” (ROUSSEL-UCLAF, priority 1980, dated 1981)

Legend:
moustiques Culex pipiens = assay: Insecticidal activity on Culex pipiens mosquitoes, fumigant coil; assay type: in vivo; settings: fumigant coil, 0,60% active ingredient by weight of coil
Procedure: Exemple 6 : Etude de l'activité insecticide. sur moustiques Culex pipiens, du composé ce l'exemple 1 utilisé sous forme de serpentin fumigène.
Des supports neutres de serpentins fumigènes sont imprégnés de matière active en solution dans l'acétone. On lâche dans un cylindre fermé, en verre, de 13,50 dm3, 20 moustiques femelles agées de 4 à 5 jours et intrcduit, pendant 2 minutes, un serpentin fumigène se consumant à une extrémité. On effectue le contrôle de knock-down toutes les minutes et arrête 1.essai 5 minutes après que tous les insectes aient été abattus.

mouche domestique = assay: Knock-down activity on housefly, direct spray in Kearns and March cylinder; assay type: in vivo; settings: acetone (5%) + Isopar L
Procedure: Exemple 4 : Etude de l'activité de choc sur mouche domestique.
Les insectes tests sont des mouches domestiques femelles âgées de 4 à 5 jours. On opère par pulvérisation directe en cylindre de Kearns et March en utilisant comme solvant un mélange d'acétone (5%) et d'Isopar L (solvant pétrolier) (quantité de solvant utilisée 2 ml en une seconde). On utilise 50 insectes par dose. On effectue les contrôles toutes les minutes jusqu'à 10 minutes, puis à 15 minutes et l'on détermine le KT 50 par les méthodes habituelles.

Structure (SMILES): C=CCC1=C(C)[C@@H](OC(=O)[C@@H]2[C@H](/C=C\C(=O)OC)C2(C)C)CC1=O [Exemple 1, (R cis ΔZ) 2,2-diméthl-3/ 3-méthoxy-oxo-1-propenyl/cyclopropane carboxylatede (1S) 2-méthyl-4-oxo 3-(2-propenyl)-2-cyclopenten-1-yle]
- effet létal (moustiques Culex pipiens): 98,3%
- ET 50 (moustiques Culex pipiens; 20 female mosquitoes, 13,50 dm3 cylinder): 5,42 mn
- KT 50 (mouche domestique; concentration 0,5 g/litre): 1,26 mn
- KT 50 (mouche domestique; concentration 0,25 g/litre): 2,02 mn
